Data reported in US20160222430A1, “D-ALA-D-ALA-BASED DIPEPTIDES AS TOOLS FOR IMAGING PEPTIDOGLYCAN BIOSYNTHESIS” (INDIANA UNIVERSITY RESEARCH AND TECHNOLOGY CORPORATION, priority 2013, published 2016).
Where two headings read alike, the source gives them in different places. Where a SMILES comes first, the peptide text is derived from it. [ ]: non-standard residue; d: D form.

Assays:
B. subtilis wt = assay type: cell-based, Bacillus subtilis; parameters: Growth rescue (culture density), B. subtilis wt: key: +++++: highest culture density achieved within a set; ++++: intermediate values, relative fractions of the highest culture density within a set; +++: intermediate values, relative fractions of the highest culture density within a set; ++: intermediate values, relative fractions of the highest culture density within a set; +: intermediate values, relative fractions of the highest culture density within a set; −: no bacterial growth
[1] = system: C. trachomatis serovar L2 strain 434/Bu; assay: Labeling of chlamydial PG in infected L2 cells; assay type: cell-based, Chlamydia trachomatis; conditions: grown for 18 h in the presence of antibiotic (DCS 294 μM or ampicillin 2.8 μM)
[2] = system: C. trachomatis serovar L2 strain 434/Bu; assay: DCS Chlamydia trachomatis plaque assay in L2 mouse fibroblast monolayers; assay type: cell-based; conditions: DCS 294 μM
E. coli wt = assay type: cell-based, Escherichia coli; parameters: Growth rescue (culture density), E. coli wt: key: +++++: highest culture density achieved within a set; ++++: intermediate values, relative fractions of the highest culture density within a set; +++: intermediate values, relative fractions of the highest culture density within a set; ++: intermediate values, relative fractions of the highest culture density within a set; +: intermediate values, relative fractions of the highest culture density within a set; −: no bacterial growth
A. tumefaciens = assay: Control experiment with fluorescent D-Ala and L-Ala in A. tumefaciens; assay type: cell-based, Agrobacterium tumefaciens
Method: Control experiments were carried out in A. tumefaciens, B. subtilis and E. coli with fluorescent D-Ala (D-HCC) and fluorescent L-Ala (L-HCC). […] This observation was true for all strains tested.

E. coli ΔddlA ΔddlB = assay type: cell-based, Escherichia coli
E. coli = assay: FDAA/CDAA labeling of E. coli, fluorescence microscopy; assay type: cell-based, Escherichia coli; conditions: 2%-8% of doubling time
E. coli cells = assay: PG labeling of E. coli with dipeptide probes, click chemistry and epifluorescence microscopy; assay type: cell-based, Escherichia coli; conditions: 0.5 mM, 45 min; clicked to Alexa Fluor 488 azide
B. subtilis cells = assay type: cell-based, Bacillus subtilis
For Growth (culture density), B. subtilis wt in this document: key: +++++: highest culture density achieved within a set; ++++: intermediate values, relative fractions of the highest culture density within a set; +++: intermediate values, relative fractions of the highest culture density within a set; ++: intermediate values, relative fractions of the highest culture density within a set; +: intermediate values, relative fractions of the highest culture density within a set; −: no bacterial growth.
For Growth (culture density), E. coli wt in this document: key: +++++: highest culture density achieved within a set; ++++: intermediate values, relative fractions of the highest culture density within a set; +++: intermediate values, relative fractions of the highest culture density within a set; ++: intermediate values, relative fractions of the highest culture density within a set; +: intermediate values, relative fractions of the highest culture density within a set; −: no bacterial growth.
For Growth rescue (culture density), E. coli Δddla, Δddlb in this document: key: +++++: highest culture density achieved within a set; ++++: intermediate values, relative fractions of the highest culture density within a set; +++: intermediate values, relative fractions of the highest culture density within a set; ++: intermediate values, relative fractions of the highest culture density within a set; +: intermediate values, relative fractions of the highest culture density within a set; −: no bacterial growth.

## N[C@@H]1CONC1=O [DCS, D-cycloserine]
B. subtilis wt
  Growth (culture density), B. subtilis wt: −
[1]
  Morphology of chlamydial RBs grown with antibiotic: inclusions contained enlarged, aberrant RBs
[2]; no amino acid
  Plaque formation: −
E. coli wt
  Growth (culture density), E. coli wt: −

## N[C@@H](CNC(=O)c1cc2ccc(O)cc2oc1=O)C(=O)O [HALA]
A. tumefaciens
  Incorporation into the cell wall: only D-HCC was incorporated into the cell wall

## C[C@@H](N)C(=O)O [D-Ala, D-alanine]
[2]; amino acid to DCS ratio 1:1
  Plaque formation: ++++
[2]; amino acid to DCS ratio 1:10
  Plaque formation: +++

## CC1(C)S[C@@H]2[C@H](NC(=O)[C@H](N)c3ccccc3)C(=O)N2[C@H]1C(=O)O [ampicillin]
[1]
  Morphology of chlamydial RBs grown with antibiotic: inclusions contained enlarged, aberrant RBs

## C[C@@H](N)C(=O)N[C@H](C)C(=O)O [DA-DA, D-alanyl-D-alanine] (H-[dA]-[dA]-OH)
B. subtilis wt
  Growth rescue (culture density), B. subtilis wt: ++++
[2]; amino acid to DCS ratio 1:1
  Plaque formation: ++
[2]; amino acid to DCS ratio 10:1
  Plaque formation: +++
E. coli ΔddlA ΔddlB; MM (M9 + 0.2% glucose) + 25 μM, initial inoculum OD600 = 0.025
  Growth rescue (culture density), E. coli Δddla, Δddlb: ++
E. coli ΔddlA ΔddlB; MM + 25 μM, initial inoculum OD600 = 0.0025
  Growth rescue (culture density), E. coli Δddla, Δddlb: +
E. coli ΔddlA ΔddlB; MM + 200 μM, initial inoculum OD600 = 0.025
  Growth rescue (culture density), E. coli Δddla, Δddlb: +++++
E. coli wt
  Growth rescue (culture density), E. coli wt: ++

## NC(CNC(=O)c1cc2ccc(O)cc2oc1=O)C(=O)O (stereo not drawn) [HADA]
A. tumefaciens
  Incorporation into the cell wall: incorporated into the cell wall
E. coli
  Localization of signal after short labeling times: preferential localization of the signal at the septal plane of pre-divisional cells and in punctate patterns on the lateral walls of elongating cells

## C#CN[C@@H](C)C(=O)N[C@@H](C)C(=O)O [ELA-LA, ethynyl-L-alanyl-L-alanine]
E. coli cells
  PG labeling signal, L-enantiomer control: No labeling was observed
E. coli ΔddlA ΔddlB; MM + 0.8 mM, initial inoculum OD600 = 0.025
  Growth rescue (culture density), E. coli Δddla, Δddlb: −
E. coli ΔddlA ΔddlB; MM + DA-DA (25 μM) + 0.80 mM of the analog, initial inoculum OD600 = 0.0025
  Growth rescue (culture density), E. coli Δddla, Δddlb: +
B. subtilis cells
  PG labeling signal, L-enantiomer control: No labeling was observed
